Results: paper PMC6407917, “Identification of GSK3186899/DDD853651 as a Preclinical Development Candidate for the Treatment of Visceral Leishmaniasis” (Journal of Medicinal Chemistry, 2018)

Legend:
Test in all cases: biochemical
Design in all cases: species or system HEK293/K-562/placenta mixed human extract; Kinobeads chemoproteomic competition binding, quantified by TMT LC-MS/MS, dose response up to 20 uM
CAMK2G = CAMK2G (Homo sapiens, UniProt Q13555)
CHUK = CHUK (Homo sapiens, UniProt O15111)
EIF2AK1 = EIF2AK1 (Homo sapiens, UniProt Q9BQI3)
EIF2AK4 = EIF2AK4 (Homo sapiens, UniProt Q9P2K8)
EPHB6 = EPHB6 (Homo sapiens, UniProt O15197)
Sequence of EPHB6 (O15197 whole entry): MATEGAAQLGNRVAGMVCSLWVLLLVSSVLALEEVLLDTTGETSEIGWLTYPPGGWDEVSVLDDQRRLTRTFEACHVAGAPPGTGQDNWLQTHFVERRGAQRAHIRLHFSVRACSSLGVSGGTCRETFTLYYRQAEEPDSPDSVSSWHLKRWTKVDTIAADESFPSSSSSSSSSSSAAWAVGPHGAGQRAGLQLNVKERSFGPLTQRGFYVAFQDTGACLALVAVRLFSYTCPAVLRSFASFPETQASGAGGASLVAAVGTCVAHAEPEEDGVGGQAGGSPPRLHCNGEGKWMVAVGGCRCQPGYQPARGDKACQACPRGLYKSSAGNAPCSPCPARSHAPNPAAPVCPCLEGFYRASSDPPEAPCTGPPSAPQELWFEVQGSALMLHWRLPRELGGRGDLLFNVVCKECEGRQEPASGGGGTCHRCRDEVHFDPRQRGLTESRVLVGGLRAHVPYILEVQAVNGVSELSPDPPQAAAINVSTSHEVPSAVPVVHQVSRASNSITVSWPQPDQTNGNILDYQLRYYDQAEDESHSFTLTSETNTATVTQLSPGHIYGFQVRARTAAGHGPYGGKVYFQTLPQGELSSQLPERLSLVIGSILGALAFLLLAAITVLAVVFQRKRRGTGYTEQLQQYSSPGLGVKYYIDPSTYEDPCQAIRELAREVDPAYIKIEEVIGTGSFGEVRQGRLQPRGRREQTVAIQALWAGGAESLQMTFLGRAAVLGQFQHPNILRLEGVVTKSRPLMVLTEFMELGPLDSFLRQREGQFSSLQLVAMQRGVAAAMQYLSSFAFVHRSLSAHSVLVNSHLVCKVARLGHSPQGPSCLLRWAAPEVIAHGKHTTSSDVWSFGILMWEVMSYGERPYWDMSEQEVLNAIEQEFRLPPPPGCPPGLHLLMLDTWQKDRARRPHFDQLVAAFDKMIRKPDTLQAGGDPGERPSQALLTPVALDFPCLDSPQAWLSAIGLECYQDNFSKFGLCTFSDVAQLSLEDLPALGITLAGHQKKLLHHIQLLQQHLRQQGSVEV

FES = FES (Homo sapiens, UniProt P07332)
FGR = FGR (Homo sapiens, UniProt P09769)
MAP4K4 = MAP4K4 (Homo sapiens, UniProt O95819)
MAPK1 = MAPK1 (Homo sapiens, UniProt P28482)
MAPK14 = MAPK14 (Homo sapiens, UniProt Q16539)
Sequence of MAPK14 (Q16539 whole entry): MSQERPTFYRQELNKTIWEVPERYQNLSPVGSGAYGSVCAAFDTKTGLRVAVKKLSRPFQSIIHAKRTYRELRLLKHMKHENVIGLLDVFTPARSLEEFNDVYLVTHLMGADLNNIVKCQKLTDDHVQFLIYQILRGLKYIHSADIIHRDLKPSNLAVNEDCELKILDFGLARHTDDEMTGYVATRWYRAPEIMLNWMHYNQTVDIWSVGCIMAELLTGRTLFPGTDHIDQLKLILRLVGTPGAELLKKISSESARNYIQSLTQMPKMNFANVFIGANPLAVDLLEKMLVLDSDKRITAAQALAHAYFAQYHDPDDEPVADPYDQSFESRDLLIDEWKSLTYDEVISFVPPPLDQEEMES

MELK = MELK (Homo sapiens, UniProt Q14680)
MYLK = MYLK (Homo sapiens, UniProt Q15746)
PAK4 = PAK4 (Homo sapiens, UniProt O96013)
Sequence of PAK4 (O96013 whole entry): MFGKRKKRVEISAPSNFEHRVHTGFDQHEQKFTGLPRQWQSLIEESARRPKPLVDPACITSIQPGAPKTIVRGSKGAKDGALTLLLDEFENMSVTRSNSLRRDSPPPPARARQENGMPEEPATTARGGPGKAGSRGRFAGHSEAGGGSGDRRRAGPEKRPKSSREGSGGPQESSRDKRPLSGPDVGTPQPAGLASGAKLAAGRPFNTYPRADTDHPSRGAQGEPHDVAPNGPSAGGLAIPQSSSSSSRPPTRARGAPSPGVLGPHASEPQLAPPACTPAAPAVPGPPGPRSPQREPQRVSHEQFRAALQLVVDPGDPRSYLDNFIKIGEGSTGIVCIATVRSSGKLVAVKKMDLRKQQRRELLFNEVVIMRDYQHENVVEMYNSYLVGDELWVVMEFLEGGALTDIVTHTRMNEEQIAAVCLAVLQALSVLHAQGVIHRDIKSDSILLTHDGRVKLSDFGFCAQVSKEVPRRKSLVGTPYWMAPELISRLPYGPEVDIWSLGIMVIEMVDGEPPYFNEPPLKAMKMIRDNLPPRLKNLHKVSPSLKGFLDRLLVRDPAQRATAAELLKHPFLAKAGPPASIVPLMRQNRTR

PFKL = PFKL (Homo sapiens, UniProt P17858)
Sequence of PFKL (P17858 whole entry): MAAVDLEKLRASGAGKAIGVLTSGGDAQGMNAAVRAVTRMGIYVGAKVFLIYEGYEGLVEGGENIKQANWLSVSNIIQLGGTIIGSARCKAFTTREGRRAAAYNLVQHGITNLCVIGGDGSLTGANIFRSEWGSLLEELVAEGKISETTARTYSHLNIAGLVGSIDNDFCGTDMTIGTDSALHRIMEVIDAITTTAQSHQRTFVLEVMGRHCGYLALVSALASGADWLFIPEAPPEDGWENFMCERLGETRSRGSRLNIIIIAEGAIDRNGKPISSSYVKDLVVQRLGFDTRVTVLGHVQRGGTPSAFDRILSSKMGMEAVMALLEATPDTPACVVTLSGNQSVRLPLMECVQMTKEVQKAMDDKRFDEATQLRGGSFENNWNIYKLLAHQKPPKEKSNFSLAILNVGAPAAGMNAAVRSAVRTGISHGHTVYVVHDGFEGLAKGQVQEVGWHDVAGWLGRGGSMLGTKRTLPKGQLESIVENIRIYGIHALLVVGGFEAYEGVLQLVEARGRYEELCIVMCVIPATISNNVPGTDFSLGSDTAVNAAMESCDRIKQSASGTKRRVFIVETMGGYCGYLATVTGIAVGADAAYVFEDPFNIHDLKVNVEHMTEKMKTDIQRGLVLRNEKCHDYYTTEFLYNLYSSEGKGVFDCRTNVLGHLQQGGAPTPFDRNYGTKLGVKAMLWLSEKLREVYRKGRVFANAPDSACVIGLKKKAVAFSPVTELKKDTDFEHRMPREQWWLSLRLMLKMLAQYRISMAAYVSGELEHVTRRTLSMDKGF

PKMYT1 = PKMYT1 (Homo sapiens, UniProt Q99640)
Sequence of PKMYT1 (Q99640 whole entry): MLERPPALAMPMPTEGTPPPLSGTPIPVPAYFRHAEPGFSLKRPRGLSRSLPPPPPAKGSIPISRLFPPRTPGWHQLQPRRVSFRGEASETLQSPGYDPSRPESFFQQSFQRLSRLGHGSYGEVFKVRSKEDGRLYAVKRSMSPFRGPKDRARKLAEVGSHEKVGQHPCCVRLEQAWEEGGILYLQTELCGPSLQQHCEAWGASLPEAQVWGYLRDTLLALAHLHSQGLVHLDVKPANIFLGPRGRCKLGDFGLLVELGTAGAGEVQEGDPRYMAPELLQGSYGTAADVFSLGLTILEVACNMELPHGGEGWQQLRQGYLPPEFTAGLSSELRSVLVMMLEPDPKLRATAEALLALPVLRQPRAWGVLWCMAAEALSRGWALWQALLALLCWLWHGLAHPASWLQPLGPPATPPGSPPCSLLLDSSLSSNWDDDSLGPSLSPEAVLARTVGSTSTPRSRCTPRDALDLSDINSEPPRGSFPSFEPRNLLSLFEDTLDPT

PKN2 = PKN2 (Homo sapiens, UniProt Q16513)
PKN3 = PKN3 (Homo sapiens, UniProt Q6P5Z2)
PRKAB1 = PRKAB1 (Homo sapiens, UniProt Q9Y478)
RIOK2 = RIOK2 (Homo sapiens, UniProt Q9BVS4)
Sequence of RIOK2 (Q9BVS4 whole entry): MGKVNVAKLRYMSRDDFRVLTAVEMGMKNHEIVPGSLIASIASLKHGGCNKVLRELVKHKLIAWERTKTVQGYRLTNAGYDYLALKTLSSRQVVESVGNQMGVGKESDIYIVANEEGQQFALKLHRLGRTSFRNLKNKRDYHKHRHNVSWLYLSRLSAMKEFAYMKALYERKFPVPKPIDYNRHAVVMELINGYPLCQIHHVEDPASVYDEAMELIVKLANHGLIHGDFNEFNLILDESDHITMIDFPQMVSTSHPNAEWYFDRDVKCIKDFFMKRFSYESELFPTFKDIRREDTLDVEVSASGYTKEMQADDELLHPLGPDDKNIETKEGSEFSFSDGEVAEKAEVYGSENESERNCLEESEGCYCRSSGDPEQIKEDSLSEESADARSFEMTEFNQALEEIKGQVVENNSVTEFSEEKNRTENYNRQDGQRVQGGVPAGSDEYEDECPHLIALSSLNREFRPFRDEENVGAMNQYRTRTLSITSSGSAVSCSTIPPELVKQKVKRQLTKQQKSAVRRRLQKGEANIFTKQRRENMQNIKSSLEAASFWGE

RPS6KA5 = RPS6KA5 (Homo sapiens, UniProt O75582)
TGFBR1 = TGFBR1 (Homo sapiens, UniProt P36897)
Sequence of TGFBR1 (P36897 whole entry): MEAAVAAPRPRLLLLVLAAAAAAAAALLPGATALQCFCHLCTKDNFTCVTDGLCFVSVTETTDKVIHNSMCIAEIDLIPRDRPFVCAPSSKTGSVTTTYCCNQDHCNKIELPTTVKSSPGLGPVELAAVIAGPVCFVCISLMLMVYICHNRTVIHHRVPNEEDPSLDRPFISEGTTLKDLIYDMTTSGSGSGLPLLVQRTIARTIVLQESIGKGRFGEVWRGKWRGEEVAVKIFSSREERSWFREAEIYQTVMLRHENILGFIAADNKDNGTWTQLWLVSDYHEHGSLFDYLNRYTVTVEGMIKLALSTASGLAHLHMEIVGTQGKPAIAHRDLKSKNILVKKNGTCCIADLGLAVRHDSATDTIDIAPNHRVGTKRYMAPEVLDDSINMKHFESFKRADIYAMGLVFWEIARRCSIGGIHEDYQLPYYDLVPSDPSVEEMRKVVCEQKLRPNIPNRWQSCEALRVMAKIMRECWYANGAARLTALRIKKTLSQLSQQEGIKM

Measured: IC50

Sequence of CAMK2G (Q13555 whole entry): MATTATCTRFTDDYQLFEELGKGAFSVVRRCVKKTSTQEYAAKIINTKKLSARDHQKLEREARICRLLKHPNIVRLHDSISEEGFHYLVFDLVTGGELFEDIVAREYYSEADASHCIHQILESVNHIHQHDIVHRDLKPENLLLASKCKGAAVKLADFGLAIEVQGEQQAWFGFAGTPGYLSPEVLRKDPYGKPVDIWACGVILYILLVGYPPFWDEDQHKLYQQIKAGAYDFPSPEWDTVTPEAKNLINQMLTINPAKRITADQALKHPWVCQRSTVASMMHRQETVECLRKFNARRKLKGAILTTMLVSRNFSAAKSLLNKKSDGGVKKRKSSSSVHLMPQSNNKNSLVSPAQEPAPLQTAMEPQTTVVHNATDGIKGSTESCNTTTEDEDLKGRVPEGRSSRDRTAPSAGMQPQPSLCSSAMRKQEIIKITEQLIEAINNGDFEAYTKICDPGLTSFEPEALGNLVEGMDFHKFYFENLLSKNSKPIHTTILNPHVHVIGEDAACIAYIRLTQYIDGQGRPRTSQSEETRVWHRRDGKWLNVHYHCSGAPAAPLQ

COc1ccccc1-c1n[nH]c2nc(N[C@H]3CC[C@H](NS(=O)(=O)CCC(F)(F)F)CC3)nc(OC)c12 [compound 31, 3,3,3-Trifluoro-N-(trans-4-((4-methoxy-3-(2-methoxyphenyl)-1H-pyrazolo[3,4-d]pyrimidin-6-yl)amino)cyclohexyl)propane-1-sulfonamide]
≥ 20 µM: all assays above
